The values that follow come from patent publication US12590099B2, “Inhibitors of histone deacetylase useful for the treatment or prevention of HIV infection” (Merck Sharp & Dohme LLC, priority 2018, dated 2026).

Test [1] deals with T1, HDAC6 (Homo sapiens, UniProt Q9UBN7).
T1 sequence (Q9UBN7 1-1215): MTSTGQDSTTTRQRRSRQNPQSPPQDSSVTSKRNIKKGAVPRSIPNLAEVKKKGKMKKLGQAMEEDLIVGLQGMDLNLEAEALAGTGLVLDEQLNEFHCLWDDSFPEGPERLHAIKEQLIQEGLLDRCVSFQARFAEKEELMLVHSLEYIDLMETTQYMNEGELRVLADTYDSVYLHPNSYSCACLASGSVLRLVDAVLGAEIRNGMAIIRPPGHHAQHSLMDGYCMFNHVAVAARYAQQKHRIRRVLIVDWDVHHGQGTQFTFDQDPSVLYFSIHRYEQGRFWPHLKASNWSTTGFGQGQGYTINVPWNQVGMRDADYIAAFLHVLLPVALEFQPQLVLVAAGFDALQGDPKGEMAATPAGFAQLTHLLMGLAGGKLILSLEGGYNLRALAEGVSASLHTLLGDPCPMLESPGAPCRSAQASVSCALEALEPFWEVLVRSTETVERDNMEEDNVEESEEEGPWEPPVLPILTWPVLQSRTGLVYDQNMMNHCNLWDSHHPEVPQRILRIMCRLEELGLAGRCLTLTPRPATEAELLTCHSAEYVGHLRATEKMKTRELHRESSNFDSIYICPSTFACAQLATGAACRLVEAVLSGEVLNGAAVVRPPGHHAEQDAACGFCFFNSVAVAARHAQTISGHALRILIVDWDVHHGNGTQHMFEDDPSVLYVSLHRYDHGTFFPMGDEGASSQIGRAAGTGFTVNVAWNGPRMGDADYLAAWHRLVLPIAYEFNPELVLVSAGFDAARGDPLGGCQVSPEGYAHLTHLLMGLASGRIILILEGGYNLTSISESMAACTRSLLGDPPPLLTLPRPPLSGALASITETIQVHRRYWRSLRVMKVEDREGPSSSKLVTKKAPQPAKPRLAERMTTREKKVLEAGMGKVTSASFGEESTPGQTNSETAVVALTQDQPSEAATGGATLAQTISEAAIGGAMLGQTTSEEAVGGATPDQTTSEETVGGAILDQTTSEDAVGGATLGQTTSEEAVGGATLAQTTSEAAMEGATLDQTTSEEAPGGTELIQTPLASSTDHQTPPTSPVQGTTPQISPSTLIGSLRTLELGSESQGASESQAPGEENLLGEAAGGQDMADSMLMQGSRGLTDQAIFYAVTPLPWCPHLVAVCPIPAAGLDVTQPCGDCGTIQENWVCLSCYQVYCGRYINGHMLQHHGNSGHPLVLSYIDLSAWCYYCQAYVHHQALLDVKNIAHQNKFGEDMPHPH
In words: Human HDAC enzyme inhibitor Fluor-de-Lys assay, HDAC6. Format: biochemical.

Test [2] addresses T2, Recombinant human HDAC8 (Homo sapiens, UniProt Q9BY41).
T2 construct: purchased Enzo Life Sciences BML-SE145-0100
T2 sequence (Q9BY41 1-377): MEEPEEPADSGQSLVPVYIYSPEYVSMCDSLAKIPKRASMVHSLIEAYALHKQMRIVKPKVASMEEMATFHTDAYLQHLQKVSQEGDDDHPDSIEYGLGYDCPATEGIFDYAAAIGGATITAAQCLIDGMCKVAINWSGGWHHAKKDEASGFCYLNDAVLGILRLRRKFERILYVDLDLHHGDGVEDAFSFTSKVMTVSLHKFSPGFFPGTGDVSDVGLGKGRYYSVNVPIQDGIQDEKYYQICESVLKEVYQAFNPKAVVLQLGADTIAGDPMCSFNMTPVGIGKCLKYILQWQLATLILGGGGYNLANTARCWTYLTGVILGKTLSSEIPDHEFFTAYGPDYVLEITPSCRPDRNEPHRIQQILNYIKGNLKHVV
The experiment in a line: Human HDAC enzyme inhibitor Fluor-de-Lys assay, HDAC8. It counts as biochemical.

Test [3] has as its system KARN cells (Jurkat 2C4). In words: cells. It counts as cell-based. In outline: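 Jurkat 2C4 (KARN) cells dosed with test compounds up to 40 μM final, 0.4% DMSO, overnight at 5% CO2; luciferase read by Steady-Glo luminescence after 10 min at room temperature. DMSO set as 0% and 2 μM SAHA as 100% induction; 4-parameter fit of percent activation.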
Where [4] appears, read: recombinant human HDAC8, Fluor-de-Lys assay.
Setting [5] is: Homo sapiens, Jurkat, read-out: Karn EC50 (nM) 0.1% NHS, 0.1% normal human serum, luciferase induction, 100% = 2 μM SAHA.
Where [6] appears, read: Homo sapiens, Jurkat, read-out: Karn EC50 (nM) 5% NHS, 5% normal human serum, luciferase induction, 100% = 2 μM SAHA.
The mark [7] stands for this setting: Homo sapiens, Jurkat, read-out: Karn EC50 (nM) 0.1% NHS, 0.1% normal human serum.
The mark [8] stands for this setting: Homo sapiens, Jurkat, read-out: Karn EC50 (nM) 5% NHS, 5% normal human serum.

The structures appear in SMILES notation. Read-outs that look alike come from different tables or passages of the source.

Take `CCC(=O)CCCCC[C@H](NC(=O)[C@H]1CC12CCCN(C)C2)c1ncc(-c2cc3ccccc3nc2OC)[nH]1` (stereo partly shown) [Compound 287]: the IC50 stood at 351 nM in test [1] (HDAC6, Fluor-de-Lys assay) and 2.78 µM in test [2] (setting [4]). The EC50 in test [3] (read-out: Karn EC50 (nM) 0.1% NHS, 0.1% normal human serum, luciferase induction, 100% = 2 μM SAHA) was 81 nM; in test [3] (read-out: Karn EC50 (nM) 5% NHS, 5% normal human serum, luciferase induction, 100% = 2 μM SAHA), 325 nM.
Turning to `CCC(=O)CCCCC[C@H](NC(=O)[C@H]1C[C@@]12CCN(C)C2)c1ncc(-c2cc3ccccc3nc2OC)[nH]1` [Compound 328], the IC50 in test [1] (HDAC6, Fluor-de-Lys assay) was determined as 395 nM; in test [2] (setting [4]), 3.31 µM. Also, the EC50 in test [3] (setting [5]) worked out at 73 nM; in test [3] (setting [6]) it was 322 nM.
As for `CCC(=O)CCCCC[C@H](NC(=O)[C@H]1CC12CCN(CC)CC2)c1ncc(-c2cc3nn(C)cc3cc2OC)[nH]1` [Compound 190], the IC50 amounted to 562 nM in test [1] and 3.11 µM in test [2]. Besides, the concentration giving a half-maximal response (EC50) worked out at 967 nM in test [3] (setting [7]) and 1450 nM in test [3] (setting [8]).
The matching figures for `CCC(=O)CCCCC[C@H](NC(=O)[C@H]1CC12CCN(CC)CC2)c1ncc(-c2ccc3c(=O)n(CC)ccc3c2)[nH]1` [Compound 92]: 2980 nM, 6.26 µM, 52 nM and 56 nM.
Regarding `CCC(=O)CCCCC[C@H](NC(=O)[C@H]1CC12CCCN(C)C2)c1ncc(-c2cc3ccccc3nc2OC)[nH]1` (stereo partly shown) [Compound 286], the IC50 turned out to be 342 nM in test [1] (HDAC6, Fluor-de-Lys assay) and 3.87 µM in test [2] (setting [4]). Further, the figures for the 50% effective concentration (EC50) in test [3] (setting [5]) and in test [3] (setting [6]) were 116 nM and 406 nM, respectively.
As to `CCC(=O)CCCCC[C@H](NC(=O)[C@H]1CC12CCOCC2)c1ncc(-c2cc3ccccc3nc2OC)[nH]1` [Compound 63], the IC50 is 619 nM in test [1] and 3.09 µM in test [2]. Moreover, the EC50 in test [3] (setting [7]) turned out to be 234 nM; in test [3] (setting [8]), 1790 nM.
The matching figures for `CCC(=O)CCCCC[C@H](NC(=O)[C@H]1CC12CCN(CC)CC2)c1ncc(-c2cc3ccccc3nc2OC)o1` [Compound 124]: 137 nM, 16 µM, 111 nM and 151 nM.
As to `CCC(=O)CCCCC[C@H](NC(=O)[C@H]1CC12CCN(C(N)=O)CC2)c1ncc(-c2cc3ccccc3nc2OC)[nH]1` (single isomer, unassigned) [Compound 319], the IC50 turned out to be 1170 nM in test [1] (HDAC6, Fluor-de-Lys assay) and 2.27 µM in test [2] (setting [4]). For the same compound, the EC50 was found to be 1560 nM in test [3] (setting [5]) and 9850 nM in test [3] (setting [6]).
Consider `CCC(=O)CCCCC[C@H](NC(=O)C1CC2(C1)CN(C)C2)c1ncc(-c2cc3ccccc3nc2OC)[nH]1` [Compound 311], for which the IC50 in test [1] (HDAC6, Fluor-de-Lys assay) is 385 nM; in test [2] (setting [4]), 2.66 µM. Moreover, the EC50 in test [3] (setting [5]) came out at 131 nM; in test [3] (setting [6]), 841 nM.
The like results for `CCC(=O)CCCCC[C@H](NC(=O)C1CC12CCN(C)CC2)c1ncc(-c2cc3ccccc3nc2OC)[nH]1` (stereo partly drawn) [Compound 313, N—((S)-1-(5-(2-methoxyquinolin-3-yl)-1H-imidazol-2-yl)-7-oxononyl)-6-methyl-6-azaspiro[2.5]octane-1-carboxamide] were, in that order, 246 nM, 3.02 µM, 57 nM and 272 nM.
`CCC(=O)CCCCC[C@H](NC(=O)[C@@H]1CC12CN(C)C2)c1ncc(-c2cc3ccccc3nc2OC)[nH]1` [Compound 322]: the IC50 in test [1] (HDAC6, Fluor-de-Lys assay) was determined as 219 nM; in test [2] (setting [4]) it was 2.49 µM. Besides, the half-maximal effective concentration (EC50) in test [3] (setting [5]) came out at 74 nM; in test [3] (setting [6]) it was 287 nM.
The matching figures for `CCC(=O)CCCCC[C@H](NC(=O)[C@H]1CC12CCN(Cc1ccc(OC)cc1)CC2)c1ncc(-c2cc3ccccc3nc2OC)[nH]1` [Compound 295]: 973 nM, 3.23 µM, 113 nM and 180 nM.
The like results for `CCC(=O)CCCCC[C@H](NC(=O)[C@H]1CC12CCN(Cc1cccnc1)CC2)c1ncc(-c2cc3ccccc3nc2OC)[nH]1` [Compound 294] were, in that order, 415 nM, 4.92 µM, 63 nM and 277 nM.
The matching figures for `CCC(=O)CCCCC[C@H](NC(=O)[C@H]1CC12CCN(CC(C)C)CC2)c1ncc(-c2cc3ccccc3nc2OC)[nH]1` [Compound 335]: 329 nM, 3.28 µM, 31 nM and 63 nM.
Consider `CCC(=O)CCCCC[C@H](NC(=O)[C@H]1CC12CCN(C)CC2)c1ncc(-c2cc3ccc(Cl)cc3nc2OC)[nH]1` [Compound 177], for which the concentration for half-maximal inhibition (IC50) was found to be 341 nM in test [1] and 2.56 µM in test [2]. Besides, the results for the EC50 in test [3] (setting [7]) and in test [3] (setting [8]) were 22 nM and 41 nM, respectively.
For the compound `CCC(=O)CCCCC[C@H](NC(=O)C1CC12CN(C)C2)c1ncc(-c2cc3ccccc3nc2OC)[nH]1` (stereo partly shown) [Compound 312], the IC50 in test [1] (HDAC6, Fluor-de-Lys assay) is 299 nM; in test [2] (setting [4]), 2.02 µM. Further, the EC50 in test [3] (setting [5]) was 155 nM; in test [3] (setting [6]), 633 nM.
The like results for `CCC(=O)CCCCC[C@H](NC(=O)[C@H]1CC12CCN(CC)CC2)c1ncc(-c2ccc3ncccc3c2)[nH]1` [Compound 346] were, in that order, 545 nM, 3.16 µM, 46 nM and 57 nM.
In the case of `CCC(=O)CCCCC[C@H](NC(=O)[C@H]1CC12CCN(CC(F)(F)F)CC2)c1ncc(-c2cc3ccccc3nc2OC)[nH]1` [Compound 333], the concentration for half-maximal inhibition (IC50) was 1110 nM in test [1] (HDAC6, Fluor-de-Lys assay) and 6.09 µM in test [2] (setting [4]). In addition, the values for the EC50 in test [3] (setting [5]) and in test [3] (setting [6]) were 113 nM and 719 nM, respectively.
Regarding `CCC(=O)CCCCC[C@H](NC(=O)[C@H]1CC12CCN(CCC(F)(F)F)CC2)c1ncc(-c2cc3ccccc3nc2OC)[nH]1` [Compound 332], the 50% inhibitory concentration (IC50) was determined as 745 nM in test [1] (HDAC6, Fluor-de-Lys assay) and 14.1 µM in test [2] (setting [4]). Besides, the EC50 was found to be 78 nM in test [3] (setting [5]) and 343 nM in test [3] (setting [6]).
